Article PMC4980431, “Ctf4 Is a Hub in the Eukaryotic Replisome that Links Multiple CIP-Box Proteins to the CMG Helicase” (Molecular Cell, 2016)

Tests used:
Ctf4 471–927 (Ctf4CTD) = experiment: GST pull-down; type: binding, budding yeast; conditions: GST fusion on Glutathione Sepharose; Ctf4CTD 2 mg/ml, 1 hr 4°C; SDS-PAGE
Procedure: For each Dna2 construct to be tested for interaction with Ctf4CTD, a 25-ml E. coli Rosetta2 (DE3) culture overexpressing the GST-fusion construct was pelleted, resuspended in buffer (50 mM Tris [pH 7.0], 500 mM NaCl, 10% [w/v] glycerol, 1 mM DTT, and protease inhibitors) (Sigma), and lysed by sonication. Following centrifugation, the soluble extract was mixed with 50 μl of Glutathione Sepharose beads (GE Healthcare) pre-equilibrated in the same buffer, and incubated under rotation at 4°C for 1 hr. Unbound protein was removed by three consecutive washes with 1 ml of buffer, followed by three 1-ml washes with pull-down buffer (20 mM HEPES [pH 7.2], 150 mM NaCl, 5% [w/v] glycerol, 0.1% Igepal CA-630, 1 mM TCEP, and 1% BSA). Subsequently, 500 μl of purified Ctf4CTD protein at a concentration of 2 mg/ml was added to the Sepharose beads and binding was allowed to take place for an additional 1 hr at 4°C. The binding reaction was stopped by two consecutive washes with 1 ml of pull-down buffer and a final 1 ml wash with pull-down buffer without BSA. The Sepharose beads were mixed with SDS loading dye and Ctf4CTD interactions with the respective bait proteins were detected via SDS-PAGE.

Ctf4 471–927 = experiment: Native mass spectrometry; type: binding, budding yeast; conditions: for direct binding to Ctf4 (in words): 500 mM ammonium acetate, 5-fold or 10-fold molar excess of peptide, 100 μM protein, minimum 30 min
Procedure: In preparation for non-denaturing nano-electrospray ionization mass spectrometry (native mass spectrometry), Ctf4 471–927 was subjected to two successive rounds of buffer exchange into 500 mM ammonium acetate using illustra NAP-5 columns (GE Healthcare). Following buffer exchange, a 5-fold or 10-fold molar excess of Dna2 peptide 207- […] -223 or Tof2 peptide 497- […] -517 solubilized in 500 mM ammonium acetate was mixed with Ctf4CTD at a final protein concentration of 100 μM and incubated for a minimum of 30 min. Native mass spectra were recorded on a Synapt HDMS instrument (Waters) and calibrated using caesium iodide (100 mg ml^−1) as described previously ([Hernández and Robinson, 2007], [Simon et al., 2014]).

Ctf4 471-927 (Ctf4CTD) [1] = target: T1, Ctf4 471-927 (Ctf4CTD) (Saccharomyces cerevisiae, UniProt Q01454); experiment: Fluorescence anisotropy, peptide binding to Ctf4 471-927; design: species or system budding yeast; conditions: 40 nM fluorescein-labeled Tof2 peptide, pH 7.2, 25°C, single measurement
T1 sequence (Q01454 471-927): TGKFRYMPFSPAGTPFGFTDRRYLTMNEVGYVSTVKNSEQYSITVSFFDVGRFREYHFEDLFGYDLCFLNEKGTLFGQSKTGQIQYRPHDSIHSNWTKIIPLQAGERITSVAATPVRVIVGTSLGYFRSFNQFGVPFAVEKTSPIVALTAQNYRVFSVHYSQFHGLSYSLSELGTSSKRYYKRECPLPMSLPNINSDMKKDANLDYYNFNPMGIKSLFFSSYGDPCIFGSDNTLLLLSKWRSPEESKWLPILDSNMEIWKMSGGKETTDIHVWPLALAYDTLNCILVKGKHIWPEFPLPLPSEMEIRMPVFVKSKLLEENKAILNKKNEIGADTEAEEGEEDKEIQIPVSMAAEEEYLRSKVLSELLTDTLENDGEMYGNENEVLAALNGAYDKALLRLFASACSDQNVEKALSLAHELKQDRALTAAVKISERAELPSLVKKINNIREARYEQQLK
Procedure: The lowest concentration of peptide at which the binding studies could be performed was determined via peptide calibration curves. Fluorescence anisotropy measurements were recorded in a PHERAstar Plus multi-detection plate reader (BMG Labtech) equipped with fluorescence polarization optic module (λex = 485 nm; λem = 520 nm) at 25°C. Each data point is the mean of 200 flashes/well. The voltage gain was set by adjusting the target mP values of fluorescein-labeled peptides relative to that of fluorescein (35 mP). Serial dilutions of Ctf4CTD were made in 20 mM HEPES (pH 7.2), 140 mM KCl, and 5% (w/v) glycerol in the presence of 40 nM (Sld5 and Tof2) or 50 nM (Dna2) fluorescein-labeled peptide. For Dna2 peptide, each data point is the mean of three independent experiments and curve fitting to the experimental data was performed in pro Fit 6.2 (QuantumSoft) using a Levenberg-Marquardt fitting algorithm in combination with a Gaussian error distribution analysis.

Ctf4 471-927 (Ctf4CTD) [2] = target: T1, Ctf4 471-927 (Ctf4CTD); conditions: isolated CIP-boxes; quoted in Discussion; ref Simon et al., 2014; read-out: affinity constant Kd; cited from earlier work
From the text: The way that CIP-box proteins compete with each other for binding to Ctf4 remains an interesting issue for future investigation.

Substance	pull-down of Ctf4 (in words) (Ctf4 471–927 (Ctf4CTD))	direct binding to Ctf4 (in words) (Ctf4 471–927; listed as Tof2 CIP)	direct binding to Ctf4 (in words) (Ctf4 471–927; listed as peptide containing the Tof2 CIP-box)	hierarchy of affinities / occupancy of binding sites by CIP-box peptides (Ctf4 471–927; hierarchy of affinities said to be reflected in native MS occupancy, Figures S3B and S4A, Simon et al., 2014)	Kd (result in words) (Ctf4 471-927 (Ctf4CTD) [1])	Kd (result in words) (Ctf4 471-927 (Ctf4CTD) [1]; listed as Tof2)	Kd (Ctf4 471-927 (Ctf4CTD) [2]) [µM]
SHAKDVKIQETIRKLNRFKPT [Tof2 peptide]	could indeed bind directly to Ctf4 in vitro	binds directly to Ctf4	could indeed bind directly to Ctf4 in vitro	Sld5 > Pol1 > Dna2 > Tof2	too weak to be quantified reliably	not determinable	
CIP-box of Sld5: isolated CIP-box of Sld5, affinity quoted from Simon et al., 2014 (MDINIDDILAELDKETTAVD; fluorescein label (N-terminal probable); the exact peptide limits are in Simon et al. 2014)							5
